According to patent US12521393B2, “Cytotoxicity targeting chimeras for CCR2-expressing cells” (GLAXOSMITHKLINE INTELLECTUAL PROPERTY DEVELOPMENT LIMITED, priority 2021, dated 2026):

Key:
[1] = system: endogenous target monocytes in human PBMC; assay: PBMC ex vivo monocyte depletion flow cytometry assay (Example 200); format: cell-based; conditions: with anti-cotinine antibody (SEQ ID NO: 11/12), 18-24 hours, EC50 in molar, read-out: Ex Vivo Depletion Assay pEC50 (converted)
Method in brief: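 Monocyte depletion is reported as pEC50, averaged or given individually across runs, and read by flow cytometry staining CD45, CD14 and CD4 with a viability dye. Compounds, diluted four-fold over 11 points from 1 mM DMSO stocks, were combined with 30 μg/mL Fc-enhanced anti-cotinine antibody and human PBMC, then incubated 18-24 h at 37° C.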

[2] = system: CCR2 expressing cells (CD11b+Ly6c+Hi) in peripheral blood; assay: In vivo depletion assay, flow cytometry of peripheral blood (Example 201); set-up: species or system human CCR2 knock-in mice (C57 background); conditions: hCCR2 knock-in mice, IV 0.1 mpk compound + 10 mpk anti-cotinine antibody (SEQ ID NO: 13/14), peripheral blood at 48 hr
Method in brief: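 Mice dosed with compound formulated in saline/DMSO/PBS, with anti-cotinine antibody (rabbit variable region, mouse IgG2a Fc) where required, pre-incubated 30 min at room temperature. Terminal peripheral blood RBC-lysed, Fc-blocked, stained for CD45, CD3, CD11b, Ly6C, human CCR2 and 7AAD; percent depletion of CD11b+Ly6c+Hi cells determined by flow cytometry.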

[3] = molecular target: anti-cotinine antibody (SEQ ID NO: 11/12, rabbit variable region with human IgG1 Fc DE mutation); assay: SPR binding of anti-cotinine antibody to ARM compounds, Biacore T200, 37° C. (Example 202); conditions: SPR Biacore T200, 37° C., pH 7.4, antibody SEQ ID NO: 11/12 captured on protein A; Kd in molar
Method in brief: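 Antibody captured on a protein A chip; ARM compounds injected at 100 μL/min (200 s association, 2000 s dissociation), 3-fold 5-point series from 200 nM, at 37 °C in HEPES pH 7.4 buffer with 0.005% P20 and 1% DMSO. Double-referenced sensorgrams fit 1:1 for kon, koff, Kd (koff/kon), residence time (1/koff); pKd averaged across runs.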

Row | SMILES | EC50 [1] | % Depletion of CCR2 expressing cells [2] | pKd of Antibody for ARM Compound of Formula (I) [3]
1 | CC(C)N(C)[C@@H]1CC[C@H](N2CC[C@H](Nc3ncnc4ccc(C(F)(F)F)cc34)C2=O)[C@H](NC(=O)CCOCCNC(=O)COCCNC(=O)CCOCCNC(=O)[C@H]2CC(=O)N(C)[C@@H]2c2cccnc2)C1 [Example 163, (2S,3S)-N-(19-(((1R,2S,5R)-5-(Isopropyl(methyl)amino)-2-((S)-2-oxo-3-((6-(trifluoromethyl)quinazolin-4-yl)amino)pyrrolidin-1-yl)cyclohexyl)amino)-6,12,19-trioxo-3,10,16-trioxa-7,13-diazanonadecyl)-1-methyl-5-oxo-2-(pyridin-3-yl)pyrrolidine-3-carboxamide] | 0.871 nM | 89% | 9.07
2 | CN1C(=O)C[C@H](C(=O)NCCOCCOCCOCCC(=O)N[C@H]2CC[C@H](C(=O)N[C@@H]3C[C@H](NC(C)(C)C)CC[C@@H]3N3CC[C@H](Nc4ncnc5ccc(C(F)(F)F)cc45)C3=O)CC2)[C@H]1c1cccnc1 [Example 31, (2S,3S)-N-(2-(2-(2-(3-(((1S,4s)-4-(((1R,2S,5R)-5-(tert-Butylamino)-2-((S)-2-oxo-3-((6-(trifluoromethyl)quinazolin-4-yl)amino)pyrrolidin-1-yl)cyclohexyl)carbamoyl)cyclohexyl)amino)-3-oxopropoxy)ethoxy)ethoxy)ethyl)-1-methyl-5-oxo-2-(pyridin-3-yl)pyrrolidine-3-carboxamide] | 3.16 nM | 94.9% | 9.3015
3 | CC(C)N(C)[C@@H]1CC[C@H](N2CC[C@H](Nc3ncnc4ccc(C(F)(F)F)cc34)C2=O)[C@H](NC(=O)COCCNC(=O)CNC(=O)CCOCCOCCNC(=O)[C@H]2CC(=O)N(C)[C@@H]2c2cccnc2)C1 [Example 80, (2S,3S)-N-(1-(((1R,2S,5R)-5-(Isopropyl(methyl)amino)-2-((S)-2-oxo-3-((6-(trifluoromethyl)quinazolin-4-yl)amino)pyrrolidin-1-yl)cyclohexyl)amino)-1,7,10-trioxo-3,13,16-trioxa-6,9-diazaoctadecan-18-yl)-1-methyl-5-oxo-2-(pyridin-3-yl)pyrrolidine-3-carboxamide] | 3.98 nM | 89% | 9.109
4 | CC(C)N(C)[C@@H]1CC[C@H](N2CC[C@H](Nc3ncnc4ccc(C(F)(F)F)cc34)C2=O)[C@H](NC(=O)[C@H]2CC[C@@H](NC(=O)CCCOC[C@H]3CC[C@@H](COCCNC(=O)[C@H]4CC(=O)N(C)[C@@H]4c4cccnc4)CC3)CC2)C1 [Example 61, (2S,3S)-N-(2-(((1S,4R)-4-((4-(((1S,4S)-4-(((1R,2S,5R)-5-(Isopropyl(methyl)amino)-2-((S)-2-oxo-3-((6-(trifluoromethyl)quinazolin-4-yl)amino)pyrrolidin-1-yl)cyclohexyl)carbamoyl)cyclohexyl)amino)-4-oxobutoxy)methyl)cyclohexyl)methoxy)ethyl)-1-methyl-5-oxo-2-(pyridin-3-yl)pyrrolidine-3-carboxamide] | 0.316 nM | 92% | 9.558
5 | CC(C)N(C)[C@@H]1CC[C@H](N2CC[C@H](Nc3ncnc4ccc(C(F)(F)F)cc34)C2=O)[C@H](NC(=O)CCOCCOCCNC(=O)NCCOCCOCCNC(=O)[C@H]2CC(=O)N(C)[C@@H]2c2cccnc2)C1 [Example 119, (2S,3S)-N-(20-(((1R,2S,5R)-5-(Isopropyl(methyl)amino)-2-((S)-2-oxo-3-((6-(trifluoromethyl)quinazolin-4-yl)amino)pyrrolidin-1-yl)cyclohexyl)amino)-10,20-dioxo-3,6,14,17-tetraoxa-9,11-diazaicosyl)-1-methyl-5-oxo-2-(pyridin-3-yl)pyrrolidine-3-carboxamide] | 1.58 nM | 77% | 9.1735
6 | CC(C)N(C)[C@@H]1CC[C@H](N2CC[C@H](Nc3ncnc4ccc(C(F)(F)F)cc34)C2=O)[C@H](NC(=O)[C@H]2CC[C@H](CNC(=O)CCOCCOCCOCCNC(=O)[C@H]3CC(=O)N(C)[C@@H]3c3cccnc3)CC2)C1 [Example 32, (2S,3S)-N-(1-((1S,4s)-4-(((1R,2S,5R)-5-(Isopropyl(methyl)amino)-2-((S)-2-oxo-3-((6-(trifluoromethyl)quinazolin-4-yl)amino)pyrrolidin-1-yl)cyclohexyl)carbamoyl)cyclohexyl)-3-oxo-6,9,12-trioxa-2-azatetradecan-14-yl)-1-methyl-5-oxo-2-(pyridin-3-yl)pyrrolidine-3-carboxamide] | 0.398 nM | 83% | 9.1825
7 | CC(C)N(C)[C@@H]1CC[C@H](N2CC[C@H](Nc3ncnc4ccc(C(F)(F)F)cc34)C2=O)[C@H](NC(=O)[C@H]2CC[C@@H](NC(=O)COCCNC(=O)CCOCCNC(=O)[C@H]3CC(=O)N(C)[C@@H]3c3cccnc3)CC2)C1 [Example 152, (2S,3S)-N-(2-(3-((2-(2-(((1S,4s)-4-(((1R,2S,5R)-5-(Isopropyl(methyl)amino)-2-((S)-2-oxo-3-((6-(trifluoromethyl)quinazolin-4-yl)amino)pyrrolidin-1-yl)cyclohexyl)carbamoyl)cyclohexyl)amino)-2-oxoethoxy)ethyl)amino)-3-oxopropoxy)ethyl)-1-methyl-5-oxo-2-(pyridin-3-yl)pyrrolidine-3-carboxamide] | 1.26 nM | 82% | 9.111
8 | CC(C)N(C)[C@@H]1CC[C@H](N2CC[C@H](Nc3ncnc4ccc(C(F)(F)F)cc34)C2=O)[C@H](NC(=O)[C@H]2CC[C@H](NC(=O)CCCOCCCCOCCNC(=O)[C@H]3CC(=O)N(C)[C@@H]3c3cccnc3)CC2)C1 [Example 121, (2S,3S)-N-(2-(4-(4-(((1R,4r)-4-(((1R,2S,5R)-5-(Isopropyl(methyl)amino)-2-((S)-2-oxo-3-((6-(trifluoromethyl)quinazolin-4-yl)amino)pyrrolidin-1-yl)cyclohexyl)carbamoyl)cyclohexyl)amino)-4-oxobutoxy)butoxy)ethyl)-1-methyl-5-oxo-2-(pyridin-3-yl)pyrrolidine-3-carboxamide] | 1.26 nM | 69% | 9.332
9 | CC(C)N(C)[C@@H]1CC[C@H](N2CC[C@H](Nc3ncnc4ccc(C(F)(F)F)cc34)C2=O)[C@H](NC(=O)[C@H]2C[C@@H](NC(=O)CCOC[C@H]3CC[C@H](COCCNC(=O)[C@H]4CC(=O)N(C)[C@@H]4c4cccnc4)CC3)C2)C1 [Example 55, (2S,3S)-N-(2-(((1S,4S)-4-((3-(((1S,3S)-3-(((1R,2S,5R)-5-(Isopropyl(methyl)amino)-2-((S)-2-oxo-3-((6-(trifluoromethyl)quinazolin-4-yl)amino)pyrrolidin-1-yl)cyclohexyl)carbamoyl)cyclobutyl)amino)-3-oxopropoxy)methyl)cyclohexyl)methoxy)ethyl)-1-methyl-5-oxo-2-(pyridin-3-yl)pyrrolidine-3-carboxamide] | 0.126 nM | 76.2% | 9.4085
10 | CC(C)N(C)[C@@H]1CC[C@H](N2CC[C@H](Nc3ncnc4ccc(C(F)(F)F)cc34)C2=O)[C@H](NC(=O)COCCNC(=O)CCOCCNC(=O)CCOCCNC(=O)[C@H]2CC(=O)N(C)[C@@H]2c2cccnc2)C1 [Example 47, (2S,3S)-N-(1-(((1R,2S,5R)-5-(Isopropyl(methyl)amino)-2-((S)-2-oxo-3-((6-(trifluoromethyl)quinazolin-4-yl)amino)pyrrolidin-1-yl)cyclohexyl)amino)-1,7,14-trioxo-3,10,17-trioxa-6,13-diazanonadecan-19-yl)-1-methyl-5-oxo-2-(pyridin-3-yl)pyrrolidine-3-carboxamide] | 0.316 nM | 73% | 9.051
11 | CN1C(=O)C[C@H](C(=O)NCCO[C@H]2CC[C@@H](OCCCC(=O)N[C@H]3CC[C@H](C(=O)N[C@@H]4C[C@H](NC(C)(C)C)CC[C@@H]4N4CC[C@H](Nc5ncnc6ccc(C(F)(F)F)cc56)C4=O)CC3)CC2)[C@H]1c1cccnc1 [Example 2, (2S,3S)-N-(2-(((1S,4R)-4-(4-(((1R,4R)-4-(((1R,2S,5R)-5-(tert-Butylamino)-2-((S)-2-oxo-3-((6-(trifluoromethyl)quinazolin-4-yl)amino)pyrrolidin-1-yl)cyclohexyl)carbamoyl)cyclohexyl)amino)-4-oxobutoxy)cyclohexyl)oxy)ethyl)-1-methyl-5-oxo-2-(pyridin-3-yl)pyrrolidine-3-carboxamide] | 0.398 nM | 92.3% | 9.4775
